In patent publication US7713696B2, “Genetic markers for prognosis of antifolate treatment efficacy” (Academisch Zeikenhuis Leiden H.O.D.N. Lumc, priority 2006, dated 2010):

Assays:
recent-onset RA patients [1] = experiment: Clinical response to methotrexate monotherapy (DAS) in genotyped patients of the BeSt trial; assay type: in vivo, human; conditions: for Good clinical response at six months, number of patients / Good clinical response at six months, percentage of patients: DAS≦2.4
Description: The 247 patients enrolled in the study was a sub-cohort of 508 patients participating in the BeSt trial (25). Inclusion criteria for this trial were fulfilment of the American College of Rheumatology (ACR) 1987 criteria, age of 18 years or older, a disease duration of less than 2 years. All patients had to have an active disease defined as ≧6/66 swollen joints and ≧6/68 tender joints and either an ESR ≧28 mm/hr or a Visual Analogue Scale (VAS) for global health ≦20 mm (on a scale of 0-100, 0=worst, 100=best).
The BeSt trial is a randomized, multi-centre, single-blinded, clinical study comparing the clinical efficacy of four different treatment strategies in early rheumatoid arthritis; sequential monotherapy (n=126 starting with methotrexate), step-up to combination therapy with sulphasalazine (n=121 starting with methotrexate), initial combination therapy with methotrexate, sulphasalazine and a high tapered dose of prednisolone (n=133) or initial biologic therapy with infliximab and methotrexate (n=128). In the present study, only patients allocated to initial single use of methotrexate were selected (n=247).
The primary objective of treatment in the BeSt study was achieving good clinical response as defined by the DAS≦2.4 (26-28). The DAS is a validated composite outcome measure consisting of the Ritchie articular index (RAI), the number of swollen joints (SJC, out of 44), general well being as indicated by the patient on a visual analogue scale (VAS), and the Erythrocyte Sedimentation Rate (ESR). A research nurse who remained blinded for the allocated treatment group scored the DAS every three months.
All selected patients started with oral methotrexate 7.5 mg weekly, increased to 15 mg weekly after 4 weeks, combined with folic acid (1 mg per day). In case of insufficient clinical response at three months of follow-up (DAS>2.4), the dosage was increased stepwise to 25 mg weekly, either orally or parenterally as decided by the rheumatologist. If the clinical response remained insufficient with methotrexate 25 mg weekly, patients were treated according to the next step of the BeSt protocol; patients with methotrexate sequential monotherapy switched to sulphasalazine 1000 mg twice daily; patients with initial step-up combination therapy, sulphasalazine 1000 mg twice daily was added to methotrexate. Concomitant therapies with nonsteroidal anti-inflammatory drugs (NSAIDs), as well as intra-articular injections with corticosteroids, were allowed for all treatment groups. For current analysis, clinical data for the first six months of follow-up were used, representing methotrexate treatment only.
“Responders” were defined as patients with DAS ≦2.4 (good clinical response) based on EULAR response criteria (26-28) and ‘non-responders ’ as patients with DAS >2.4 at six months of follow up.
Differences in baseline characteristics were analysed by Student's t-test for continuous variables or Chi-square test for dichotomous variables. Differences in genotype distribution for response and toxicity were tested by 3 by 2 cross tabs for each genotype, and by 2 by 2 cross tabs for carriers versus non-carriers analysis with the two-sided Chi-square test. We used binary logistic analysis in case of differences in genotype distribution, to calculate odds ratios for achieving good response or experiencing adverse drug events. Age and gender were identified as possible confounders and were used as covariates in all regression analyses. The primary efficacy endpoint was good clinical response at six months (DAS≦2.4). DAS good clinical response status required patients to be present at a given time point; no values were carried forward. Secondary endpoints were good clinical improvement defined as change in DAS>1.2 (ΔDAS>1.2) and moderate clinical improvement defined as change in DAS>0.6 (ΔDAS>0.6). […]

recent-onset RA patients [2] = experiment: Adverse drug events during six months of methotrexate therapy, BeSt trial; assay type: in vivo, human
Experimental: Toxicity was evaluated by counting each reported adverse drug event and its consequences for the patient and treatment. Adverse drug events were spontaneously reported by the patients, or were reported as a result of non-specific questioning on patients' well-being by the investigator, by physical examination or laboratory measurements during follow up. In case of adverse drug events, methotrexate was continued at the lowest tolerated dose, or if methotrexate was not tolerated at all, the DMARD therapy was adjusted according to the protocol. Of all reported adverse drug events, the following non-infectious adverse drug events were evaluated explicitly: gastrointestinal adverse drug events defined as patients' general well-being, nausea, vomiting, diarrhea, and constipation; liver adverse drug events defined as all cases of elevated functional liver enzymes resulting in methotrexate dose adjustment or discontinuation; pneumonitis; skin and mucosal disorders. Moreover, patients were evaluated for leucopenia (<4.10^9/L), ALAT 3 times upper limit of normal (>135 U/L) and for alkaline phosphatase (AF) 3 times the upper limit of normal (>360 U/L).
For toxicity analysis, all patients who altered therapy from methotrexate before six months of follow-up were verified for adverse drug events after change of therapy and included in the analysis. The analyses of laboratory measurements were performed for completers only. The toxicity regression analysis was tested for the following confounders: weight, creatinine clearance, methotrexate dosage group (15 or 25 mg) and use of alcohol.

[3] = test system: Rheumatoid arthritis (RA) patients; conditions: literature refs 7-9; cited from earlier work
[4] = ITPA CC genotype, 15 mg weekly, six months
[5] = all patients with toxicity data (n=200)

For CN(Cc1cnc2nc(N)nc(N)c2n1)c1ccc(C(=O)N[C@@H](CCC(=O)O)C(=O)O)cc1 [methotrexate], the “Good clinical response, Methotrexate 15 mg weekly, percentage” value (recent-onset RA patients [1]; ITPA CA genotype, 15 mg weekly, six months) was “(60%)”, the “Good clinical response, Methotrexate 25 mg weekly, number of responders/patients” value (recent-onset RA patients [1]; ITPA CA genotype, six months) was 4/22 and the “Good clinical response, Methotrexate 25 mg weekly, percentage” value (recent-onset RA patients [1]; ITPA CA genotype, six months) was “(18%)”. For the same molecule, the “Good clinical response at six months, number of patients” value (recent-onset RA patients [1]; ITPA CA genotype) was 7, the “Good clinical response at six months, percentage of patients” value (recent-onset RA patients [1]; ITPA CA genotype) was “(23%)” and the “Good clinical response, Methotrexate 15 mg weekly, number of responders/patients” value (recent-onset RA patients [1]; [4]) was 38/47. The “Good clinical response, Methotrexate 15 mg weekly, percentage” value (recent-onset RA patients [1]; [4]) was “(81%)”, the “Good clinical response, Methotrexate 25 mg weekly, number of responders/patients” value (recent-onset RA patients [1]; ITPA CC genotype, six months) was 39/107 and the “Good clinical response, Methotrexate 25 mg weekly, percentage” value (recent-onset RA patients [1]; ITPA CC genotype, six months) was “(36%)”. The “Good clinical response at six months, number of patients” value (recent-onset RA patients [1]; ITPA CC genotype) was 79, the “Good clinical response at six months, percentage of patients” value (recent-onset RA patients [1]; ITPA CC genotype) was “(45%)” and the “good clinical response percentage at 6 months” value (recent-onset RA patients [1]; ITPA CC genotyped) was 50%. The “percentage responders (DAS≦2.4) at six months” value (recent-onset RA patients [1]; overall population) was 47%, the “response rate at six months” value (recent-onset RA patients [1]; patients carrying all the favourable genotypes (n=16)) was 88% and the “odds ratio for achieving good clinical response” value (recent-onset RA patients [1]; patients carrying all the favourable genotypes (n=16), logistic regression) was 27.8. The “response rate at six months” value (recent-onset RA patients [1]; patients carrying all three unfavourable genotypes (n=10)) was 10%, the “Adverse drug events at six months, number of patients with event/patients” value (from here on “Adverse drug events … with event/patients”) (recent-onset RA patients [2]; AMPD1 CC genotype) was 42/146 and the “Adverse drug events at six months, percentage of patients” value (recent-onset RA patients [2]; AMPD1 CC genotype) was “(29%)”. The “Adverse drug events … with event/patients” value (recent-onset RA patients [2]; AMPD1 CT genotype) was 16/50, the “Adverse drug events at six months, percentage of patients” value (recent-onset RA patients [2]; AMPD1 CT genotype) was “(32%)” and the “Adverse drug events … with event/patients” value (recent-onset RA patients [2]; AMPD1 TT genotype) was 1/3. The “Adverse drug events at six months, percentage of patients” value (recent-onset RA patients [2]; AMPD1 TT genotype) was “(33%)”, the “Adverse drug events … with event/patients” value (recent-onset RA patients [2]; ATIC CC genotype) was 21/94 and the “Adverse drug events at six months, percentage of patients” value (recent-onset RA patients [2]; ATIC CC genotype) was “(22%)”. For the same molecule, the “Adverse drug events … with event/patients” value (recent-onset RA patients [2]; ATIC CG genotype) was 33/91, the “Adverse drug events at six months, percentage of patients” value (recent-onset RA patients [2]; ATIC CG genotype) was “(36%)” and the “times more likely to experience any adverse drug event” value (recent-onset RA patients [2]; ATIC G-allele carriers, six months, not significant after adjustment) was 2 times. For the same molecule, the “Adverse drug events … with event/patients” value (recent-onset RA patients [2]; ATIC GG genotype) was 6/15, the “Adverse drug events at six months, percentage of patients” value (recent-onset RA patients [2]; ATIC GG genotype) was “(40%)” and the “Adverse drug events … with event/patients” value (recent-onset RA patients [2]; ITPA CA genotype) was 8/30. The “Adverse drug events at six months, percentage of patients” value (recent-onset RA patients [2]; ITPA CA genotype) was “(27%)”, the “Adverse drug events … with event/patients” value (recent-onset RA patients [2]; ITPA CC genotype) was 51/169 and the “Adverse drug events at six months, percentage of patients” value (recent-onset RA patients [2]; ITPA CC genotype) was “(30%)”. For the same molecule, the “Gastrointestinal (general wellbeing, nausea, vomiting, diarrhoea, constipation), frequency at 6 months, number of patients” value (recent-onset RA patients [2]; [5]) was 26, the “Gastrointestinal (general wellbeing, nausea, vomiting, diarrhoea, constipation), frequency at 6 months, percentage” value (recent-onset RA patients [2]; [5]) was “(13.0%)” and the “Hepatic elevated liver enzymes, frequency at 6 months, number of patients” value (recent-onset RA patients [2]; [5]) was 16. For the same molecule, the “Hepatic elevated liver enzymes, frequency at 6 months, percentage” value (recent-onset RA patients [2]; [5]) was “(8%)”, the “Overall adverse drug events, total population, frequency at 6 months, number of patients” value (recent-onset RA patients [2]; [5]) was 60 and the “Overall adverse drug events, total population, frequency at 6 months, percentage” value (recent-onset RA patients [2]; [5]) was “(30%)”. For the same molecule, the “Pneumonitis, frequency at 6 months, number of patients” value (recent-onset RA patients [2]; [5]) was 0, the “Pneumonitis, frequency at 6 months, percentage” value (recent-onset RA patients [2]; [5]) was “(0%)” and the “Skin and mucosa disorders, frequency at 6 months, number of patients” value (recent-onset RA patients [2]; [5]) was 17. For the same molecule, the “Skin and mucosa disorders, frequency at 6 months, percentage” value (recent-onset RA patients [2]; [5]) was “(8.5%)”, the “study population that experienced at least one adverse drug event during six months of treatment” value (recent-onset RA patients [2]; n=60 of 200) was “Thirty” and the “odds ratio for adverse drug events” value (recent-onset RA patients [2]; non-responders carrying the ATIC G-allele compared to all ATIC G-allele carriers, 95% CI 1.1,7.5) was 2.8. For the same molecule, the “odds ratio for adverse drug events” value (recent-onset RA patients [2]; patients with good clinical response at six months compared to non-responders, 95% CI 0.22, 0.91) was 0.45 and the “patients showing good clinical response” value [3] was “about 40%”.
